Assay results published in ChEMBL document CHEMBL3045283, “Synthesis and biological activity of heterocycles from chalcone” (2008).
Calls of active or inactive are those of the source. No cut-off for these calls is given here.

Experiments:
[1] = system: Salmonella typhimurium; experiment: Antibacterial activity against Salmonella enterica subsp. enterica serovar Typhimurium at 1000 ug/disc; type: functional, organism-based
[2] = system: Escherichia coli; experiment: Antibacterial activity against Escherichia coli at 1000 ug/disk; type: functional
[3] = system: Bacillus subtilis; experiment: Antibacterial activity against Bacillus subtilis at 1000 ug/disk; type: functional; details: read-out: IZ
[4] = system: Staphylococcus aureus; experiment: Antibacterial activity against Staphylococcus aureus at 1000 ug/disc; type: functional

Row | Structure (SMILES) | inhibition zone (IZ) [1] | zone of inhibition at 1000 µg/disc ([2]; read-out: IZ) [mm] | zone of inhibition at 1000 µg/disc [3] [mm] | zone of inhibition at 1000 µg/disc ([4]; read-out: IZ) [mm] | inhibition zone (IZ) [2] | inhibition zone (IZ) [4]
1 | O=c1oc2ccccc2c(O)c1C1=NNC(c2cn[nH]c2-c2ccccc2O)C1 (configuration not stated) | inactive | 12 | 25 | 20 |  | 
2 | O=C(/C=C/c1coc2ccccc2c1=O)c1c(O)c2ccccc2oc1=O | inactive |  | 12 |  | inactive | inactive
3 | O=c1oc2ccccc2c(O)c1C1=NN(c2ccccc2)C(c2cnn(-c3ccccc3)c2-c2ccccc2O)C1 (configuration not stated) | inactive |  | 10 |  | inactive | inactive
